# Patent US20070249988A1, “Electrotransport Delivery of Nesiritide” (ALZA CORPORATION, priority 2006, published 2007)
# Assays:
# [1] = In vitro electrotransport of nesiritide across heat-separated human epidermis (ET cells, solution donor); format: in vitro ADME
# Procedure: Nesiritide was screened in vitro for its electrotransport (ET) properties with heat-separated human epidermis/stratum corneum (skin).
# In vitro electrotransport of nesiritide across heat-separated human epidermis/stratum corneum was conducted using anodic drive with ET cells in three separate sets of experiments, using human epidermis from three sources under the conditions set forth in the table below.
# The pH of donor solutions was monitored before and after the experiments. The amount of passive transport was determined in fully assembled ET cells, incubated at 32° C. for 1 hour, with subsequent analysis of the receptor solution by RP-HPLC. […] The applied constant current was 100 μA/cm^2. The receptor solution was removed for analysis and replenished at 2 hour intervals during the first eight hours of testing, and then after 24 hours and 26 hours. The voltage drop across each cell was monitored at intervals throughout the experiment. Additionally, after the completion of transport studies, the solutions from some donor compartments were removed and analyzed either for evidence of peptide degradation or for pH changes.
# When comparing data obtained using different conditions during ET Flux, it is thought to be more useful to compare the median values for each case (Holladay, L. A. 1995; personal communications). The use of the median as a figure of merit for ET flux data decreases the impact of both measurement and recovery problems for cells with low transport values. It also minimizes the impact of data from ECs with higher values, which may represent skin that was partially leaking. In order to compare the values of the median from different studies, it is necessary to have an estimate of the confidence interval for each median. If the values for the medians are different, but the confidence intervals overlap, then the results are not truly distinguished. For this work with nesiritide, a Bootstrap method (Diciccio, T. J., Romano, J. P. A Review of Bootstrap Confidence Intervals, J. R. Statist Soc B, 1988; 50 338-354; Efron, B., Tibshirani, R. Bootstrap Methods for Standard errors, Confidence Intervals, and Other Measures of Statistical Accuracy, Statistical Science, 1986; 1 54-77) was used to determine 95% and 67% confidence intervals for the data sets compared. The method estimates the intervals using considerable amounts of computation; 32,000 trials of the algorithm were used for these analyses.
# hairless guinea pigs = assay: Skin irritation after electrotransport administration; format: in vivo
# Procedure: Nesiritide was administered to hairless guinea pigs, and the guinea pigs were monitored for skin irritation.
# [2] = Stability under donor conditions (buffer, RP-HPLC); format: physicochemical
# Procedure: The stability of nesiritide at 32° C. under both donor and receptor conditions was evaluated.
# The peptide was incubated in various buffer systems, both with and without human epidermis, at concentrations to be used for donor solutions. Experiments were conducted at 32° C. for 8 hours and 24 hours. The solutions were separated into portions and analyzed by RP-HPLC using the conditions described in the table below, both directly and after dilution to give a concentration of nesiritide at ˜100 μg/mL. In some cases, donor solutions were also removed and analyzed following ET Flux experiments.
# [3] = 8 hour delivery, study a & c, fresh skin, combine 1 mM & 3 mM, 100 μA/cm^2
# [4] = 8 hour delivery, study a & c, fresh skin, donor 1 mM, 100 μA/cm^2
# [5] = 8 hour delivery, study b, frozen skin, donor 1 mM, 100 μA/cm^2
# [6] = 8 hour delivery, study b, frozen skin, donor 3 mM, 100 μA/cm^2
# [7] = 8 hour delivery, study c, fresh skin, donor 3 mM, 100 μA/cm^2
structure (smiles),measurement,setting,value
"CC[C@H](C)[C@@H]1NC(=O)[C@H](CCCNC(=N)N)NC(=O)[C@H](CC(=O)O)NC(=O)[C@H](CCSC)NC(=O)[C@H](CCCCN)NC(=O)[C@H](CCCNC(=N)N)NC(=O)CNC(=O)[C@H](Cc2ccccc2)NC(=O)[C@@H](NC(=O)CNC(=O)[C@H](CO)NC(=O)CNC(=O)[C@H](CCC(N)=O)NC(=O)[C@@H](NC(=O)[C@H](CCSC)NC(=O)[C@H](CCCCN)NC(=O)[C@@H]2CCCN2C(=O)[C@@H](N)CO)C(C)C)CSSC[C@@H](C(=O)N[C@@H](CCCCN)C(=O)N[C@H](C(=O)N[C@@H](CC(C)C)C(=O)N[C@@H](CCCNC(=N)N)C(=O)N[C@@H](CCCNC(=N)N)C(=O)N[C@@H](Cc2c[nH]cn2)C(=O)O)C(C)C)NC(=O)CNC(=O)[C@H](CC(C)C)NC(=O)CNC(=O)[C@H](CO)NC(=O)[C@H](CO)NC(=O)[C@H](CO)NC(=O)[C@H](CO)NC1=O [Nesiritide, nesiritide]",comprehensive median value for transport through human skin,"[1]; 1 mM and 3 mM donor combined, 95% confidence interval of 1.2-2.1",1.6 μg cm^−2h^−1
same,Mean electrotransport flux,"[1]; 1 mM and 3 mM, study a & c, sampling up to 8 h, fresh skin",4.7 μg cm^−2 h^−1
same,Mean electrotransport flux,"[1]; 1 mM and 3 mM, study b, sampling 8 h–26 h, frozen skin",1.5 μg cm^−2 h^−1
same,Mean electrotransport flux,"[1]; 1 mM and 3 mM, study b, sampling up to 8 h, frozen skin",18.6 μg cm^−2 h^−1
same,Mean electrotransport flux,"[1]; 1 mM and 3 mM, study c, sampling 8 h–26 h, fresh skin",1.3 μg cm^−2 h^−1
same,Mean electrotransport flux,[1]; [3],4.7 μg cm^−2 h^−1
same,Median electrotransport flux,[1]; [3],1.6 μg cm^−2 h^−1
same,Mean electrotransport flux,[1]; [4],3.0 μg cm^−2 h^−1
same,Median electrotransport flux,[1]; [4],1.6 μg cm^−2 h^−1
same,Mean electrotransport flux,[1]; [5],10.7 μg cm^−2 h^−1
same,Median electrotransport flux,[1]; [5],6.3 μg cm^−2 h^−1
same,Mean electrotransport flux,[1]; [6],24.9 μg cm^−2 h^−1
same,Median electrotransport flux,[1]; [6],5.6 μg cm^−2 h^−1
same,Mean electrotransport flux,[1]; [7],8.2 μg cm^−2 h^−1
same,Median electrotransport flux,[1]; [7],2.0 μg cm^−2 h^−1
same,transport with respect to time,[1]; by 24 hours (FIG. 2),approaches zero transport
same,"median values for transport, donor 1 mM versus 3 mM",[1]; comparison of donor 1 mM and 3 mM (FIG. 3),not significantly different
same,Median Transport,"[1]; fresh skin, Mid-time 0",0 μg cm^−2 h^−1
same,Median Transport,"[1]; fresh skin, Mid-time 0.6",4.00 μg cm^−2 h^−1
same,Median Transport,"[1]; fresh skin, Mid-time 2.2",2.01 μg cm^−2 h^−1
same,Median Transport,"[1]; fresh skin, Mid-time 4.2",1.55 μg cm^−2 h^−1
same,Median Transport,"[1]; fresh skin, Mid-time 6.2",1.06 μg cm^−2 h^−1
same,Median Transport,"[1]; fresh skin, Mid-time 16",0.37 μg cm^−2 h^−1
same,Median Transport,"[1]; fresh skin, Mid-time 25",0.80 μg cm^−2 h^−1
same,skin irritation,hairless guinea pigs; 0.1 mA/cm^2,mild
same,skin irritation,hairless guinea pigs; 0.2 mA/cm^2,mild
same,stability,"[2]; pH 6, 7 or 8, without human epidermis, 32° C., 8-hour",considerable stability
same,stability,"[2]; pH 6 and 7, 24-hour incubation at 32° C.",remained stable
same,degradation,"[2]; pH 6 or 7, after 24 hours at 32° C.",minimal
same,stability,"[2]; pH 8, 24-hour incubation at 32° C.",considerable loss of nesiritide
same,peptide degradation or change in disulfide bond in donor solutions,[2]; selected donor solutions following ET flux,no peptide degradation or change in the disulfide bond
